Values of other authors, collected in US11877989B2, “Nutritional supplement containing L-α-glycerophosphorylcholine” (Energy Beverages LLC, priority 2020, dated 2024).

Experiments:
subjects [1] = details: in vivo
[2] = six weeks of supplementation
beagles = details: up to 300 mg/kg/day
rats [3] = test system: rats
healthy male subjects = details: 1000 mg ingested, 60 min after taking
rats [4] = details: up to 1000 mg/kg/day
[5] = single intramuscular dose
subjects [6] = test system: subjects
[7] = in vivo and in vitro assays
[8] = test system: patients after stroke or transient ischemic attacks; details: 1000 mg daily for 28 days, then 400 mg three times per day for 5 months
[9] = dose of 6 mg/kg
[10] = test system: amnesia caused by scopolamine; details: oral
subjects [11] = details: 600 mg per day, after 6 days

In the case of `CC(C)C[C@H](NC(=O)CN(C)C(=N)N)C(=O)O` [Creatyl-L-leucine, creatyl-L-leucine], the “solubility relative to creatine and L-leucine” value is listed as “more soluble than either creatine or L-leucine”.
In the case of `CCNC(=O)CC[C@H](N)C(=O)O` [L-theanine, N^5-ethyl-L-glutamine], the “cognitive function, including verbal fluency, versus placebo” value (subjects [1]) is listed as “improved”.
For `C[N+](C)(C)CC(=O)[O-]` [trimethylglycine], the “effects of supplementation on body composition, arm size, bench press work capacity and urinary HCTL” value [2] is given as “improve body composition, arm size, and bench press work capacity, and to attenuate the rise in urinary homocysteine thiolactone (HCTL)”.
In the case of L-α-glycerophosphorylcholine [α-GPC], the “symptomology in sub-chronic and chronic oral toxicity studies” value (beagles) is given as “reduced activity; slight decreases in food consumption and body weight gain; and slight reduction in liver weight”, the “oral LD50” value (rats [3]) is given as ≥ 10,000 mg/kg and the “plasma growth hormone secretion versus placebo” value (healthy male subjects) is given as “increased significantly”. The “symptomology in sub-chronic and chronic oral toxicity studies” value (rats [4]) was “reduced activity; slight decreases in food consumption and body weight gain; and slight reduction in liver weight”, the “return of plasma choline concentration to baseline” value [5] was “returned to near baseline values over a six hour period” and the “time of peak plasma choline levels” value [5] was “within about half an hour after the injection”. The “peak bench press force, greater” value (subjects [6]; 600 mg) was 14%, the “increase of peak growth hormone levels” value (subjects [6]; 600 mg single dose) was 44 fold and the “peak growth hormone level after supplementation” value (subjects [6]; 600 mg single dose) was 8.4 ± 2.1 ng/mL. For the same molecule, the “peak growth hormone level before supplementation” value (subjects [6]; 600 mg single dose, starting value) was 0.19 ± 0.06 ng/mL, the mutagenic activity [7] was “devoid of mutagenic activity” and the cognitive recovery [8] was “assists in the cognitive recovery”. The “improvement of accuracy during a reaction-time test” value [9] was 12%, the “increase of upper body power output” value [9] was 12% and the “effect on amnesia caused by scopolamine in passive avoidance” value [10] was “reverses amnesia”. The “dose of peak effect” value ([10]; 5 h before training) was 600 mg/kg, the “lower body force production” value (subjects [11]) was “increased lower body force production” and the “oral LD50” value (mice) was ≥ 10,000 mg/kg.
